From patent publication US20130324439A1, “Elastic Modulus-modified MicroEnvironment microArrays (eMEArrays) and Uses Thereof” (The Regents of the University of California, priority 2012, published 2013)
Entries after “also recorded” stand apart in the source; their conditions may differ.

How the values were obtained:
HER2 = assay: Phospho-specific intracellular flow cytometry, ratio of pHER2 to total HER2 in HCC1569; assay type: cell-based; conditions: for Modulus-dependent regulation of pHER2/HER2 ratio in treated cells: HCC1569, inhibitor for 24 hours on PA gels of differing compliance
From the text: FIG. 13 is a graph showing by using intracellular flow cytometry to analyze the pHER2 and HER2 expression level of HCC1569, that cells on softer gel have higher pHER2/HER2 ratio and less EdU incorporation, vice versa, and then compared to the drug response. Thus stiffness can alter HER2 regulation and drug response. pHER2/HER2 ratios are altered in a modulus-dependent manner. (blue line) pHER2/HER2 ratios as determined with phosphor specific flow cytometry on HCC1569 cells cultured 4 days on different compliance substrata. (red line) Responses to lapatinib determined by EdU incorporation in HCC1569 as a function of substrate compliance
To better understand why changing the elastic modulus of the culture substrata altered sensitivity to lapatinib on PA gels we used phospho-specific intracellular flow cytometry techniques to measure the ratio of phosphorylated HER2 (pHER2, which is considered activated) to total HER2. Cells were first fixed and stained with an antibody that recognized total HER2 on the cell surface, then the cells were permeabilized and stained for pHER2 prior to multicolor analysis on a flow cytometer.
To determine whether the actinomyosin network is involved in regulating the modulus-dependent regulation of HER2, HCC 1569 were exposed to Blebbistatin or Y27632 for 24 hours on PA gels of differing compliance. […] Thus the actinomyosin network is likely important in modulus-dependent regulation of HER2.

[1] = tested on: HER2+ breast cancer cell line HCC1569; assay: EdU incorporation (DNA synthesis) of HCC1569 on 2D tissue culture plastic, PA gels of tuned elastic modulus or 3D Matrigel; conditions: for Effect of actinomyosin network inhibitor on the modulus-dependent lapatinib response: HCC1569 on PA gels, 1 hr w/inhibitors; for Response to lapatinib (EdU incorporation), 3D Matrigel culture versus 2D tissue culture plastic: 4 days growth then 2 days with 1.5 μM Lapatinib; for Effect of inhibitor added with lapatinib on the 3D context-dependent response (EdU incorporation): 3D Matrigel versus 2D TC plastic; for Effect of inhibitor alone on EdU incorporation: TC plastic or 3D Matrigel, without lapatinib
Description: (§1) The cells were grown on plastic tissue culture dishes (2D) vs. PA gels, and 3D on top, RPMI1640 with 1% FBS and 5% Matrigel 4 days growth then 2 days with 1.5 μM Lapatinib.
(§2) We sought to determine if HER-2 drug response was different between 2D and 3D culture environment and whether that difference is due to different substrata stiffness. Cells were grown on plastic tissue culture dishes (2D), functionalized polyacrylamide cell culture (PA) gels, and in 3D (Matrigel on top, RPMI1640 with 1% FBS and 5% Matrigel 4 days growth then 2 days with 1.5 μM Lapatinib).
We next sought to determine if the actinomyosin network plays a role in this different drug response. Cells were grown in 2D, on PA gels, and in 3D Matrigel with 2 days growth, 1 hr w/inhibitors, then 2 days with 1.5 μM lapatinib.
To determine whether the 3D Matrigel context response was due only to the physiological modulus, we combined the actinomyosin network inhibitors together with lapatinib and compared the responses of cells in 3D to cells cultured on 2D TC plastic.
We next sought to determine if the concentration of type I collagen affected HER-2 targeted drug response. Referring now to FIG. 14, cells were subjected to non-coated tissue culture dishes, Collagen I coated tissue coated dishes for 2 days growth, then 2 days with 1.5 μM lapatinib.

HER2- BT549 cells = assay: EdU incorporation of BT549 on 2D plastic, PA gels or 3D Matrigel; assay type: cell-based; conditions: PA gel and 3D, 1.5 μM Lapatinib
Description: as §1, §2

[2] = tested on: HER2-expressing breast cancer cell lines; conditions: cited from earlier work
HCC1569 cells = assay: eMEArray drug response, EdU-pixels/nucleus-pixels of HCC1569 on printed microenvironments on PA gels
[3] = then 2 days with 1.5 μM lapatinib

With `Cc1ccc2c(c1)C(=O)C1(O)CCN(c3ccccc3)C1=N2` (stereo not shown) [Blebbistatin] the “Modulus-dependent regulation of pHER2/HER2 ratio in treated cells” value (HER2) was “absent” and the “Effect of actinomyosin network inhibitor on the modulus-dependent lapatinib response” value (from here on “Effect of actinomyosin network inhibitor”) [1, 3] was “altered”.

With `CS(=O)(=O)CCNCc1ccc(-c2ccc3ncnc(Nc4ccc(OCc5cccc(F)c5)c(Cl)c4)c3c2)o1` [Lapatinib] the “Response to lapatinib (EdU incorporation)” value (HER2- BT549 cells) was “unaffected”, the “Response to lapatinib (EdU incorporation)” value (HER2- BT549 cells; listed as lapatinib) was “did not respond; also recorded: insensitive” and the “Ratio of pHER2 to total HER2 as a function of substrate compliance” value (HER2; HCC1569 on 400 Pa, 2500 Pa, 4470 Pa, 40 KPa gels or TC plastic, 1.5 uM lapatinib for 4 days) was “higher ratio of pHER2 to total HER2 on more compliant substrata”. For the same compound, the “Responsiveness in 3D Matrigel culture compared to 2D growth” value [2] was “less responsive”, the “Response of cells on eMEArrays with elastic modulus similar to 40 kPa” value (HCC1569 cells; 40 kPa) was “sensitive response” and the “Response of cells on 400 kPa eMEArrays” value (HCC1569 cells; 400 kPa) was “resistant response”. For the same compound, the “Responses to lapatinib on other molecular microenvironments relative to type 1 collagen alone” value (HCC1569 cells; HCC1569, 1.5 μM Lapatinib for 24 hours, EdU for the final 4 hours) was “widely varied responses”, the “Response to lapatinib (EdU incorporation) on PA gels tuned to 400 Pa, compared with 3D Matrigel” value ([1]; HCC1569, 400 Pa PA gel crosslinked to type 1 collagen, 1.5 uM lapatinib) was “very similar results compared to 3D cultures; also recorded: phenocopied the response of HCC1569 grown in 3D Matrigel” and the “Response to lapatinib (EdU incorporation), 3D Matrigel culture versus 2D tissue culture plastic” value ([1]; HCC1569) was “inhibited more”. The “Response to lapatinib (EdU incorporation), 3D Matrigel culture versus 2D tissue culture plastic” value ([1]; HCC1569, listed as lapatinib) was “more sensitive” and the “Influence of type I collagen concentration on lapatinib response (% EdU incorporation)” value ([1]; non-coated vs Collagen-I coated TC dishes or PA gels, 2 days growth, then 2 days with 1.5 μM lapatinib) was “does impact lapatinib response on TC dishes, but less so on low modulus gels”.

For `O=S(=O)(c1cccc2c(I)cccc12)N1CCCNCC1` [ML-7], the “Effect of inhibitor added with lapatinib on the 3D context-dependent response (EdU incorporation)” value ([1]; HCC1569) was “eliminated any context-driven differences”, the “Effect of inhibitor alone on EdU incorporation” value ([1]; HCC1569) was “did not have any effect” and the “Effect of actinomyosin network inhibitor” value [1, 3] was “altered”. The “Effect of combination with Lapatinib on cells on 2D PA gels” value ([1]; combination of ML-7 with Lapatinib, 2D PA gels) was “synergistic response that caused massive cell death” and the “Effect of lapatinib and ML-7 together on cells in 3D” value ([1]; lapatinib and ML-7, 3D Matrigel) was “no such synergistic effect”.

In the case of `C[C@@H](N)[C@H]1CC[C@H](C(=O)Nc2ccncc2)CC1` [Y27632], the “Modulus-dependent regulation of pHER2/HER2 ratio in treated cells” value (HER2) was “absent”, the “Effect of inhibitor added with lapatinib on the 3D context-dependent response (EdU incorporation)” value ([1]; HCC1569) was “did not alter” and the “Effect of inhibitor alone on EdU incorporation” value ([1]; HCC1569) was “did not have any effect”. For the same compound, the “Effect of actinomyosin network inhibitor” value [1, 3] was “altered”.
